Here are results for 5 molecules from patent US7534607B1, “Method of producing cardiomyocytes from mesenchymal stem cells” (Industrial Technology Research Institute, priority 2005, dated 2009).

Series [1] concerns embryonic stem cells (ESCs). To be noted: ascorbic acid 0.01 mM; other antioxidants compared; Takahashi et al 2003; cited from earlier work.
For series [2] the following is noted: background statement; cited from earlier work.
Another series relates to porcine mixed MSCs. Put plainly: Cardio differentiation (myotube formation) of mixed MSCs by differentiation agents. The series is classed as cell-based. To be noted: 4 weeks of culture, 5-azacytidine 3 μM, ascorbic acid 1 mM. How it is done: Porcine bone marrow mononucleated cells were purified according to a protocol described by Haynesworth et al (Haynesworth et al., (1992) Bone 13(1), 81-8). Briefly, bone marrows from posterior iliac crest bones of three 6-8 months old Lee-Sung miniature pigs (Luh et al., (2000) Transplantation 69(10), 2019-2027) ([…]) were aspirated into syringes that contained 6,000 unit heparin. The marrow samples were diluted in a ratio of 1:1 with HBSS (Gibco) and loaded onto 1.073 g/mL Ficoll solution (Amersham) in 50 mL centrifugations tubes and were centrifuged at 2,000 rpm for 40 min at room temperature. The mononucleated cells were collected from upper and interface layers, and washed with HBSS (Gibco) twice. Subsequently, the cells were cultured in αMEM (Hyclone) medium containing 100 unit/ml penicillin, 100 μg/ml streptomycin (Gibco) and 20% fetal bovine serum (FBS) from a selected lot (Gibco, Lot No.: 1149239) at 37° C. in humid air with 5% CO2. After a series of continuously cultures, the non-adhesive cells were removed by medium change. Porcine mixed mesenchymal stem cells (MSCs) thus obtained may be used directly in the differentiation experiment of example 1.3 and can be successfully propagated for at least 2 months. […]

Series [3] concerns cardiac troponin I in fast growing BMSC clones. The series is described as follows: Western blot of cardiac troponin I and connexin43. The series is classed as cell-based, porcine. To be noted: fast growing BMSC clone No. 1 treated with ascorbic acid. The method, then:
(§1) The effect of ascorbic acid on the expression of myogenic associated genes and proteins were examined by Reverse-transcription polymerase chain reaction (RT-PCR) (FIG. 5) and western blot (FIG. 6), respectively.
Western Blot Total protein from the differentiated MSCs were extracted with cell lysis buffer (Pierce) containing 1× protease inhibitor cocktail (Roche). Protein concentration was determined by a Bio-Rad protein assay kit. Samples were boiled for 5 minutes and then subjected to 12.5% polyacrylamide gel electrophoresis. Proteins in gel were electrophoretically transferred to polyvinylidene diflouride membrane (PVDF, Millipore) at 4° C. for overnight in 25 mM Tris, 190 mM glycine (pH 8.3) containing 0.01% SDS and 10% methanol. The membrane was blocked with 5% non-fat milk to prevent nonspecific binding and then incubated with one of […] primary antibodies. Subsequently, the membrane was stained with primary antibodies that were against cardiac troponin I (at a dilution of 1:1000) and connexin43 (at a dilution of 1:2000) (Chemicon) (Makino et al., (1999) J. Clin. Invest. 103(5), 697-705), respectively, for 1 hour at room temperature. […] Bound antibodies were recognized by horseradish peroxidase-conjugated goat anti-mouse IgG and ECL reagent (Pierce), and detected by chemiluminescent detection.
Background: A western blot detects proteins with antibodies after separation by electrophoresis.

Series [4] deals with single BMSCs clones (fast-growing and slow-growing) and mixed MSCs. The series is described as follows: Cardiogenic potential of mixed MSCs and single BMSCs clones under ascorbic acid. The series is classed as cell-based, porcine. To be noted: 4 weeks. The method, then:
The porcine mixed MSCs of example 1.1 were collected from upper and interface layers, and then seeded at limited dilution into culture. Briefly, 1×10^4 mononucleated cells were plated in each well of a 96-multiwell plate, washed with HBSS (Gibco) twice, and then cultured in αMEM (Hyclone) containing 20% FBS from selected lots at 37° C. in humid air with 5% CO2. Non-adhesive cells were removed by medium change and the number of the remaining cells attached to the bottom of culture wells was examined under the microscope. Clones from wells containing only a single cell attached were chosen for further study. The isolated cells were further cultured for 3 passages, and then frozen in liquid nitrogen until the differentiation studies.
For selecting the fast-growing single BMSCs clones, the nucleated cells were seeded onto 1,000 wells following limited dilution in culture (10^4 cells/well), and 120 clones, each of which was derived from a single attached cell in the well, were obtained. Morphologically, all of the clones comprised a relatively homogeneous population of fibroblast-like cells at subconfluence, while at confluence the cells appeared more polygonal and formed a tight packed monolayer.
To examine the cardiogenic potential of single BMSCs clones, mixed MSCs of example 1.1 and isolated single BMSCs clones of example 1.2 (both fast-growing clones of clones 1-4 and slow-growing clones of clones 5-8) were cultured in the presence of 1 mM ascorbic acid for 4 weeks, and one representative result was illustrated in FIG. 3. Before ascorbic acid treatment, there were no differences in terms of morphology among mixed population of MSCs (FIG. 3A), fast-growing clone No. 1 (FIG. 3B) and slow-growing clone No. 8 (FIG. 3C), respectively.

Series [5] deals with myogenic associated genes in MSCs. Put plainly: RT-PCR of myogenic associated genes. The series is classed as cell-based, porcine. How it is done: as §1
RT-PCR Total RNA was extracted from differentiated MSCs using a RNA mini Kit (e.g., QIAGEN). Subsequently, cDNA was synthesized from 1 μg of extracted total RNA using a ThermoScript RT-PCR kit (Invitrogen). The PCR reaction was carried out with Taq DNA polymerase (Invitrogen). Reverse-transcription polymerase chain reaction (RT-PCR) of myogenic associated genes, including actin, alpha 1, skeletal muscle (ACTA), actin, alpha, cardiac muscle (ACTC) (Kubalak et al., (1994) J. Biol. Chem. 269(24), 16961-16970), mef-2c, mef-2d (Skerjanc et al., (1998) J. Biol. Chem. 273(52), 34904-34910), myogenin (Wright et al., (1989) Cell 56(4), 607-617), nkx2.5 (Lints et al., (1993) […]) and tef-1 (Chen et al., (1994) Genes Dev 8(19), 2293-2301), were performed on the differentiated cell samples (Table 1). The relative expression level of glyceraldehyde 3-phosphate dehydrogenase (GAPDH) was used as an internal control for each sample, and porcine heart and skeletal muscle cells were used as a positive control of differentiation pathway. A spectrophotometer (Amersham Bioscience) and Agilent 2100 Bioanalyzer (Agilent Technologies) were used to measure the total RNA of concentration and integrity, respectively. Results were illustrated in FIG. 5.

A further series relates to differentiated MSCs. The series is described as follows: Myotube formation detected by immunohistochemistry (phallacidin / propidium iodide staining). The class given is cell-based, porcine. To be noted: differentiated MSCs after ascorbic acid induction, confocal microscopy. How it is done: To further verify the myotube formation by ascorbic acid induction, the differentiated MSCs were stained with fluorescent phallacidin, which binds to F-actin, to reveal the formed myofibrils under phase contrast microscope (FIG. 4A) and fluorescence microscope (FIGS. 4B, 4C, and 4D), respectively. Briefly, the differentiated MSCs were washed three times with PBS for 3 minutes and the cells were then fixed with 4% paraformaldehyde for 15 min, and normalized with 0.1M glycine for 5 min, and permeabilized with 0.1% Tween 20 for 1 min. The myotube formation was confirmed by treating with alexa flour 488-conjugate phallacidin (Molecular Probes) for 20 min at room temperature. The cells were then washed two or more times with PBS. The multi-nucleate myotubes were stained by propidium iodide (Sigma) for 5 min at room temperature. After washing, they were mounted and observed under confocal laser scanning microscopy, and the multinucleated myotubes, which are one of the characteristics of fused myogenic cells, were detectable by propidium iodide staining (FIGS. 4B, 4C, and 4D).

Where [6] appears, read: MSCs after ascorbic acid treatment.
Where [7] appears, read: over the course of differentiation.

`CC(=O)N[C@@H](CS)C(=O)O` [N-acetylcysteine]: the “induction of differentiation of ESCs into cardiomyocytes” value in series [1] is reported as “not mimicked”.
On to `Nc1ncn([C@@H]2O[C@H](CO)[C@@H](O)[C@H]2O)c(=O)n1` [5-azacytidine], for which the cytotoxicity entry in series [2] is reported as “cytotoxic”. Also, the “differentiation rate (formation of myotubes)” value with porcine mixed MSCs is reported as “about 10%”.
With `O=S(=O)(O)c1cc(O)c(O)c(S(=O)(=O)O)c1` [Tiron], the “induction of differentiation of ESCs into cardiomyocytes” value in series [1] is “not mimicked”.
Take `O=C1O[C@H]([C@@H](O)CO)C(O)=C1O` [ascorbic acid]: the “expression of cardiac troponin I protein” value in series [3] is listed as “expression of a heart specific protein, i.e., cardiac troponin 1”. The “differentiation rate (formation of myotubes)” value with porcine mixed MSCs was about 25%. Also, in series [4] (fast-growing clone No. 1, 1 mM ascorbic acid), the “morphology after ascorbic acid treatment” value is reported as “started to form myotube-like structures from the third week”. Moreover, the “morphology after ascorbic acid treatment” value in series [4] (mixed MSCs, 1 mM ascorbic acid) is “started to form myotube-like structures from the third week”. Also, the “morphology after ascorbic acid treatment” value in series [4] (slow-growing clone No. 8, 1 mM ascorbic acid) is listed as “retained a fibroblast-like morphology after 4 weeks”. For the same molecule, in series [5] (setting [6]), the “expression of ACTA gene” value is “increased significantly”, the “expression of mef-2d gene” value is listed as “increased significantly” and the “expression of myogenin gene” value was “increased significantly”. For the same molecule, in series [5] (setting [7]), the “expression of ACTC gene” value is given as “no significant change”, the “expression of mef-2c gene” value is reported as “no significant change” and the “expression of nkx2.5 gene” value is listed as “no significant change”. Besides, in series [1], the “induction of differentiation of ESCs into cardiomyocytes” value was “induction of differentiation of ESCs into cardiomyocytes”. Also, the “multinucleated myotubes by propidium iodide staining” value in the series on differentiated MSCs is listed as “detectable”.
As for vitamin E, the “induction of differentiation of ESCs into cardiomyocytes” value in series [1] is “not mimicked”.
